From patent US20240067617A1 (Albireo AB, priority 2022, published 2024)

Columns and labels:
hLBAT = target: T1, hLBAT (Homo sapiens, UniProt Q14973); test: LBAT (h/m) assay: 3H-taurocholic acid uptake in human LBAT-overexpressing cells; format: cell-based; conditions: 0.3 μM 3H-taurocholic acid + 7.5 μM cold taurocholic acid, 20 minutes at 37° C.
T1 construct: expressed in transfected cells; kept under Geneticin selection
T1 sequence (Q14973 1-349): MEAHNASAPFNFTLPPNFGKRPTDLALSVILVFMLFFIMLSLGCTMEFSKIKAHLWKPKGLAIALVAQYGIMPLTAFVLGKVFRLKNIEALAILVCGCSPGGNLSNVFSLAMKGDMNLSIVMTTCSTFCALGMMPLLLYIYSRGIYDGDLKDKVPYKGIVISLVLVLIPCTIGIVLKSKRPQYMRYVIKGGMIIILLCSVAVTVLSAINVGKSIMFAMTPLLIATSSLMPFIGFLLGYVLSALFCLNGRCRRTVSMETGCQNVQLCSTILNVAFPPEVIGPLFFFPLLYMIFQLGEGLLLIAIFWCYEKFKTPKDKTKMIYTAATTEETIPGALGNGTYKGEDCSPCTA
Procedure, shortened: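 Human or mouse LBAT-overexpressing cells given 10-point inhibitor series with 0.3 μM 3H-taurocholic acid plus cold taurocholic acid (7.5 μM human, 25 μM mouse), 0.2% DMSO, for 20 min at 37° C. Stopped on ice, washed with 1 mM unlabelled taurocholic acid; uptake measured by scintillation counting.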

hIBAT = target: T2, hIBAT (Homo sapiens, UniProt Q12908); test: IBAT (h/m) assay: 3H-taurocholic acid uptake in human IBAT-overexpressing cells; format: cell-based; conditions: 0.25 μM 3H-taurocholic acid + 5 μM cold taurocholic acid, 20 minutes at 37° C., highest test concentration 10 μM
T2 construct: expressed in transfected cells; kept under Puromycin selection
T2 sequence (Q12908 1-348): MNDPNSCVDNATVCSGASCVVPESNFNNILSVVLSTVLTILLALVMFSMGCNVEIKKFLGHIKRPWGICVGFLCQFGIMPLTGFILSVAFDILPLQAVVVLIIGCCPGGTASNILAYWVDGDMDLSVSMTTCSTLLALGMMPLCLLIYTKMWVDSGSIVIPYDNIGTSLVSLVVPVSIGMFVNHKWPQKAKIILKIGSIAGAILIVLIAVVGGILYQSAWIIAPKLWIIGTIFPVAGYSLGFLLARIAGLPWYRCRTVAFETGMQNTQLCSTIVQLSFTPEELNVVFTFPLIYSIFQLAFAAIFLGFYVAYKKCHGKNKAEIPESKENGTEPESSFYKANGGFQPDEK
Procedure, shortened: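 Human or mouse IBAT-overexpressing cells cultured 48 h, then exposed for 20 min at 37 °C to compounds (top 10 μM, 3-fold, 10 points; 0.2% DMSO) with 0.25 μM 3H-taurocholic acid plus 5 μM cold taurocholic acid. Uptake stopped on ice, cells washed with cold 1 mM taurocholic acid, radioactivity counted by scintillation.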

Row | Compound | IC50 (hLBAT) [nM] | IC50 (hIBAT) [nM]
1 | CCCC[C@@H]1CN(c2ccccc2)c2cc(SC)c(CSCC(=O)O)cc2S(=O)(=O)N1 [Example 50, (R)-2-(((3-butyl-7-(methylthio)-1,1-dioxido-5-phenyl-2,3,4,5-tetrahydro-1,2,5-benzothiadiazepin-8-yl)methyl)thio)acetic acid] | 50 | 558
2 | CCCC[C@@H]1CN(c2ccccc2)c2cc(OC)c(CSCC(=O)O)cc2S(=O)(=O)N1 [Example 51, (R)-2-(((3-butyl-7-methoxy-1,1-dioxido-5-phenyl-2,3,4,5-tetrahydro-1,2,5-benzothiadiazepin-8-yl)methyl)thio)acetic acid] | 142 | 2610

The remaining lines, values ahead:

Row | IC50 (hLBAT) [nM] | IC50 (hIBAT) [nM] | Compound
3 | 248 | 2320 | CCCC[C@@H]1CN(c2ccccc2)c2cc(N(C)C)c(CSCC(=O)O)cc2S(=O)(=O)N1 [Example 49, (R)-2-(((3-butyl-7-(dimethylamino)-1,1-dioxido-5-phenyl-2,3,4,5-tetrahydro-1,2,5-benzothiadiazepin-8-yl)methyl)thio)acetic acid]
4 | > 1000 | 7.4 | CCCCC1(C)CN(c2ccccc2)c2cc(N(C)C)c(CSCC(=O)O)cc2S(=O)(=O)N1 (stereo not drawn) [Example 52, 2-(((3-Butyl-7-(dimethylamino)-3-methyl-1,1-dioxido-5-phenyl-2,3,4,5-tetrahydro-1,2,5-benzothiadiazepin-8-yl)methyl)thio)acetic acid]
5 | > 1000 | 14 | CCCCC1(C)CN(c2ccccc2)c2cc(OC)c(CSCC(=O)O)cc2S(=O)(=O)N1 (stereo not drawn) [Example 53, 2-(((3-butyl-7-methoxy-3-methyl-1,1-dioxido-5-phenyl-2,3,4,5-tetrahydro-1,2,5-benzothiadiazepin-8-yl)methyl)thio)acetic acid]
6 | > 1000 | 0.1 | CCCCC1(C)CN(c2ccccc2)c2cc(SC)c(CSCC(=O)O)cc2S(=O)(=O)N1 (stereo not drawn) [Example 54, 2-(((3-Butyl-3-methyl-7-(methylthio)-1,1-dioxido-5-phenyl-2,3,4,5-tetrahydro-1,2,5-benzothiadiazepin-8-yl)methyl)thio)acetic acid]
